“And” between values parts separate entries of the source, which are not always exact repeats. Equal values may be shown once.
Tests used:
[1] = system: A2780 (human ovary adenocarcinoma) cell lines; experiment: MTT cytotoxicity assay, A2780; type: cell-based; details: A2780 cells; for IC50: Homo sapiens, A2780, MTT assay, triplicates; for inhibitory activity against A2780 cell lines (in words): MTT assay
Procedure: (§1) The cytotoxicity of the synthesized compounds was evaluated by MTT assay, as previously described. Two cancer cell lines, MCF7 (human breast adenocarcinoma) and A2780 (human ovary adenocarcinoma), were used in this study, which were obtained from the ATCC (Rockville, MD, USA). They were sub-cultured in RPMI-1640 media (supplemented with 10% FBS and 1% antibiotics) at 37 °C and 5% CO2. Additionally, compounds were prepared at the same medium to obtain serial dilutions (50, 25, 19,1 and 0.1 µM). The two cell lines were separately cultured in 96-well plates (3 × 10^3/well) and incubated at 37 °C overnight. The following day, before treating the cells with the compounds, each well of the T0 plate was treated with 50 μL MTT solution (2 mg/mL in phosphate buffered saline) and then incubated for 2–4 h. The media were aspirated, and the formazan crystals were solubilized by adding 150 µL DMSO. Absorbance was read on a multi-plate reader (BioRad) at […]. Optical density of the purple formazan A550 was proportional to the number of viable cells. […] The data were obtained from triplicates and analyzed using statistical software.

[2] = system: MCF7 (human breast adenocarcinoma) cell lines; experiment: MTT cytotoxicity assay, MCF7; type: cell-based; details: MCF7 cells, triplicates
Procedure: as §1

[3] = target: T1, CDK2/CyclinA2 (Homo sapiens, UniProt P24941); experiment: In vitro CDK2 inhibitory activity (CDK2 Assay Kit, Kinase-Glo MAX luminescence); type: biochemical; details: triplicate measurements, read-out: CDK2 Protein Kinase (IC50 in µM)
T1 construct: purchased #79599
Procedure: The CDK2 Assay Kit is designed to measure CDK2/CyclinA2 activity for screening and profiling applications, using Kinase-Glo® MAX as a detection reagent. The CDK2 Assay Kit comes in a convenient 96-well format, with enough purified recombinant CDK2/CyclinA2 enzyme, CDK substrate peptide, ATP and kinase assay buffer for 100 enzyme reactions. […] The CDK2/CyclinA2 activity at a single dose concentration of 10μM was performed, where the Kinase-Glo MAX luminescence kinase assay kit (Promega#V6071) was used. The compounds were diluted in 10% DMSO and 5 μL of the dilution was added to a 50 μL reaction so that the final concentration of DMSO was 1% in all of the reactions. All of the enzymatic reactions were conducted at 30 °C for 40 min. The 50 μL reaction mixture contained 40 mM Tris, pH 7.4, 10 mM MgCl2, 0.1 mg/mL BSA, 1 mM DTT, […], Kinase substrate and the enzyme (CDK2/CyclinA2). After the enzymatic reaction, 50 μL of Kinase-Glo® MAX Luminescence kinase assay solution was added to each reaction and the plates were incubated for 5 min at room temperature. Luminescence signal was measured using a Bio Tek Synergy 2 microplate reader.

Compound | melting point | IC50 [3] | IC50 [1] | IC50 [2] | inhibitory activity against A2780 cell lines (in words) [1]
Cc1ccccc1C=NN=C1C(=O)Nc2ccccc21 [Compound 4a, 3-((2-Methylbenzylidene)hydrazono)indolin-2-one] | 198 to 199 °C | – | > 50 µM | 10.82 ± 0.05 µM | –
Cc1cccc(C=NN=C2C(=O)Nc3ccccc32)c1 [Compound 4b, 3-((3-Methylbenzylidene)hydrazono)indolin-2-one] | 183 to 184 °C | – | > 50 µM | 14.7 µM | –
Cc1ccc(C=NN=C2C(=O)Nc3ccccc32)cc1 [Compound 4c, 3-((4-Methylbenzylidene)hydrazono)indolin-2-one] | 230 to 231 °C | – | > 50 µM | 32.5 ± 0.52 µM | –
CSc1ccc(C=NN=C2C(=O)Nc3ccccc32)cc1 [Compound 4d, 3-((4-(Methylthio)benzylidene)hydrazono)indolin-2-one] | 204 to 205 °C | – | > 50 µM | 24 ± 2.61 µM | –
COc1cccc2c1C(=O)c1c(O)c3c(c(O)c1C2=O)C[C@@](O)(C(=O)CO)C[C@@H]3O[C@H]1C[C@H](N)[C@H](O)[C@H](C)O1 [Doxorubicin, reference compound] | – | – | 0.2 ± 0.03 µM | 3.1 ± 0.29 µM | –

More lines, main results first:

melting point | IC50 [3] | Compound | IC50 [1] | IC50 [2] | inhibitory activity against A2780 cell lines (in words) [1]
233 to 234 °C | – | O=C1Nc2ccccc2C1=NN=Cc1ccccc1Br [Compound 4e, 3-((2-Bromobenzylidene)hydrazono)indolin-2-one] | 19 ± 2.52 µM | 5.46 ± 0.71 µM | a little inhibitory activity
182 to 183 °C | – | O=C1Nc2ccccc2C1=NN=Cc1cccc(Br)c1 [Compound 4f, 3-((3-Bromobenzylidene)hydrazono)indolin-2-one] | 25 ± 2.82 µM | 9.07 ± 0.59 µM | a little inhibitory activity
267 to 268 °C | – | O=C1Nc2ccccc2C1=NN=Cc1ccc(Br)cc1 [Compound 4g, 3-((4-Bromobenzylidene)hydrazono)indolin-2-one] | > 50 µM | 15.7 ± 0.78 µM | –
251 to 252 °C | – | COc1cc(C)c(C=NN=C2C(=O)Nc3ccccc32)c(C)c1 [Compound 4h, 3-((4-Methoxy-2,6-dimethylbenzylidene)hydrazono)indolin-2-one] | > 50 µM | 25.78 ± 0.13 µM | –
242 to 243 °C | – | COc1ccc(C=NN=C2C(=O)Nc3ccccc32)c(O)c1 [Compound 4i, 3-((2-Hydroxy-4-methoxybenzylidene)hydrazono)indolin-2-one] | > 50 µM | 7.77 ± 0.008 µM | –
286 to 287 °C | 0.245 µM and 0.246 µM | O=C1Nc2ccccc2C1=NN=Cc1c(Cl)cccc1Cl [Compound 4j, 3-((2,6-Dichlorobenzylidene)hydrazono)indolin-2-one] | 26 ± 2.24 µM | 1.51 ± 0.09 µM | a little inhibitory activity
– | 0.3 µM and 0.301 µM | O=C1Nc2ccccc2C1=NN=Cc1c(F)cccc1Cl [Compound 4k, 3-((2-Chloro-6-fluorobenzylidene)hydrazono)indolin-2-one] | 27 ± 3.2 µM | 3.56 ± 0.31 µM | a little inhibitory activity
